Test results: patent US11136301B2, “Broad spectrum antiviral compounds and uses thereof” (The Regents Of The University Of California, priority 2015, dated 2021)
“Also recorded” adds a separate entry of the source. Read-outs that look alike come from different tables or passages of the source.

Experiments:
[1] = tested on: HA-tagged A3G and GFP-tagged Vif or ΔVif in 293FT cells; experiment: Immunoblot of A3G and Vif levels in transfected 293FT cells; details: 16 h; for A3G levels / Vif expression: HA-A3G and GFP-Vif
[2] = tested on: A3G, Vif, p24, HSP90 in HIV-1LAI-infected H9 and MT4 cells; experiment: Protein analysis (immunoblot) of HIV-1 infected H9 and MT4 cells; type: cell-based
Description: Non-permissive (H9) and permissive (MT4) cells were treated with 1% DMSO, IMA82, or 17-DMAG overnight and then infected with HIV-1LAI for 5 h. Cells were washed three times with PBS and cultured in medium for 72 h in the presence of the same concentrations of DMSO, IMA82, or 17-DMAG. Total cell lysates were prepared with M-PER buffer containing 0.5% Triton X-100, 150 mM NaCl, 5 mM EDTA, and protease inhibitor cocktail. Protein concentrations were determined with the DC protein assay kit (Bio-Rad). Immunoblotting was performed as described above.

[3] = tested on: Vif-A3G-HSP90-Cul5-CBF-β E3 ligase complex; experiment: Immunoprecipitation of IMA82-interacting proteins / E3 ligase complex; type: cell-based; details: 293FT cells transfected with FLAG-HSP90 and HA-A3G, 16 h
Description: Cells were washed twice with PBS and lysed in IP lysis buffer (Thermo) or in a buffer composed of 50 mM Tris-HCl (pH 7.2), 150 mM NaCl, 1% NP-40, 10% glycerol, and protease inhibitor cocktail. Cell lysates ([…]) were incubated with 5 μl of rat anti-HA (Roche), rabbit anti-GFP (Cell Signaling), mouse anti-Hsp90 (Millipore), or rabbit anti-Cul5 (Sigma) plus 30 μl of protein A or G DYNABEADS® (Invitrogen) and rotated at RT for 2 h. The beads were washed three times with PBS containing 0.05% Tween 20. Each lysate was immunoprecipitated in triplicate and the beads were combined. Immune complexes were eluted by boiling in 5×SDS sample buffer. The proteins were separated by SDS-PAGE and analyzed by immunoblotting with antibodies to HA (A3G), GFP (Vif), Hsp90, Cul5, and CBF-β, as described above.

[4] = tested on: polyubiquitination of A3G and Vif; experiment: Ubiquitination assay in 293FT cells; type: cell-based; details: 293FT-A3G-ΔVif cells (lacking Vif)
Description: Cells were incubated with or without 10 μM of IMA82, IMD55, or IMD64 for 16 h, and then with or without 10 μM of the calpain inhibitor ALLN for 4 h. The cells were washed once with PBS and lysed. Samples of 200 μg protein were immunoprecipitated by the addition of rat anti-HA (Roche) or mouse anti-GFP (Wako) antibodies (7 μg) and 50 μl protein G DYNABEADS® (Invitrogen) and rotated at RT for 2 h. The beads were washed three times with PBS containing 0.05% Tween 20 and boiled in 5×SDS sample buffer. The denatured proteins were resolved and electroblotted onto PVDF membranes. The membranes were probed with rabbit anti-ubiquitin, rabbit anti-HA, or rabbit anti-GFP antibodies, as described above.

[5] = tested on: wild-type HIV-1 (HIV-1LAI) in MT-4 cells (permissive); experiment: Antiviral activity assay: wild-type HIV-1 in permissive MT4 cells, reverse transcriptase activity in culture supernatants; type: cell-based
[6] = tested on: wild-type HIV-1 (HIV-1LAI) in H9 cells (non-permissive); experiment: microbe, parasite or virus in culture; type: cell-based
Zika virus = experiment: Zika viral replication inhibition; type: cell-based; details: FIG. 20
[7] = Water solubility of choline salts; type: physicochemical
[8] = Human immunodeficiency virus 1, MT4, Table 1, wild-type HIV-1, permissive MT4 cells, read-out: Antiviral activity (IC50 μM) MT4 cells
[9] = Human immunodeficiency virus 1, MT4, Table 3, wild-type HIV-1, permissive MT4 cells, read-out: Antiviral activity (IC50 μM) MT4 cells
[10] = Human immunodeficiency virus 1, MT4, Table 6, wild-type HIV-1, permissive MT4 cells, read-out: Antiviral activity (IC50 μM) MT4 cells
[11] = Human immunodeficiency virus 1, MT4, wild-type HIV-1 (HIV-1LAI), MT4 cells (permissive), RT activity in culture supernatants, compounds 1 to 50 μM, read-out: Antiviral activity (IC50 μM) MT4 cells
[12] = Human immunodeficiency virus 1, H9, read-out: Antiviral activity (IC50 μM) H9 cells, Table 1, wild-type HIV-1, non-permissive H9 cells
[13] = Human immunodeficiency virus 1, H9, read-out: Antiviral activity (IC50 μM) H9 cells, Table 3, wild-type HIV-1, non-permissive H9 cells
[14] = Human immunodeficiency virus 1, H9, read-out: Antiviral activity (IC50 μM) H9 cells, Table 6, wild-type HIV-1, non-permissive H9 cells
[15] = Human immunodeficiency virus 1, H9, read-out: Antiviral activity (IC50 μM) H9 cells, wild-type HIV-1 (HIV-1LAI), H9 cells (non-permissive), RT activity in culture supernatants, compounds 1 to 50 μM
[16] = Human immunodeficiency virus 1, H9, read-out: IC50, anti-HIV-1 activity, non-permissive H9 cells
[17] = Human immunodeficiency virus 1, H9, read-out: Antiviral activity (IC50 μM) H9 Cells, Table 4, wild-type HIV-1, non-permissive H9 cells
[18] = Human immunodeficiency virus 1, H9, read-out: Antiviral activity (IC50 μM) H9 Cells, Table 7, wild-type HIV-1, non-permissive H9 cells
[19] = Human immunodeficiency virus 1, H9, read-out: Antiviral activity (IC50 μM) H9 cells, Table 5, wild-type HIV-1, non-permissive H9 cells
[20] = Human immunodeficiency virus 1, H9, read-out: Antiviral activity (IC50 μM) H9 cells, Table 8, wild-type HIV-1, non-permissive H9 cells
[21] = Human immunodeficiency virus 1, MT4, Table 2, wild-type HIV-1, permissive MT4 cells, read-out: Antiviral activity (IC50 μM) MT4
[22] = Human immunodeficiency virus 1, H9, read-out: Antiviral activity (IC50 μM) H9, Table 2, wild-type HIV-1, non-permissive H9 cells
[23] = Human immunodeficiency virus 1, MT4, text, permissive MT4 cells, read-out: IC50, non-specific antiviral activity in permissive cells

Structure (SMILES)	A3G levels ([1]; 293FT cells, 50 μM)	Vif expression ([1]; 293FT cells, 50 μM)	IC50 [5, 8] [µM]	IC50 [5, 9] [µM]	IC50 [5, 11] [µM]	IC50 [6, 12] [µM]	IC50 [6, 13] [µM]	IC50 [6, 15] [µM]	IC50 [6, 16] [µM]	melting point [°C]	IC50 [6, 17] [µM]	IC50 [6, 18] [µM]	also measured
C=CCNC1=C2C[C@@H](C)C[C@H](OC)[C@H](O)[C@@H](C)/C=C(\C)[C@H](OC(N)=O)[C@@H](OC)/C=C\C=C(/C)C(=O)NC(=CC1=O)C2=O [Compound 17-AAG, 17-N-Allylamino-17-demethoxygeldanamycin, reference compound]	–	–	–	–	–	–	–	–	–	–	–	–	A3G expression ([1]; 293FT cells co-expressing HA-A3G and Vif or ΔVif): dose-dependently decreased A3G expression; Vif expression / degradation ([1]; 293FT cells co-expressing HA-A3G and Vif): unaffected; HSP90 expression ([1]; transfected 293FT cells): no effect on HSP90 levels; A3G levels ([2]; HIV-1-infected H9 cells): dose-dependently decreased the expression of A3G; Vif levels ([2]; HIV-1-infected H9 cells): without affecting Vif expression; A3G expression ([2]; uninfected H9 cells, 16 h): decreased; HSP90-A3G interaction, FLAG-HSP90 affinity purification [3]: remained in complexes with A3G; A3G ubiquitination [4]: ubiquitinated
COc1ccccc1-n1cc(-c2ccccc2Sc2ccc([N+](=O)[O-])cc2)nn1 [Compound 1d, 1-(2-Methoxyphenyl)-4-(2-((4-nitrophenyl)thio)phenyl)-1H-1,2,3-triazole]	up-regulation of A3G; also recorded: restoring A3G levels	downregulation of Vif; also recorded: down-regulated Vif expression	> 50	> 50	> 50	1.2	1.2	1.2	1.2	149 to 151	–	–	IC50 [5, 10]: > 50 µM; antiviral activity in MT4 cells (specificity) ([5]; permissive MT4 cells, up to 50 μM): no activity; IC50 [6, 14]: 1.2 µM
COC(=O)c1ccc(Sc2ccccc2-c2cn(-c3c(OC)cccc3OC)nn2)cc1 [Compound 6bx, Methyl 4-((2-(1-(2,6-dimethoxyphenyl)-1H-1,2,3-triazol-4-yl)phenyl)thio)benzoate]	–	–	–	–	–	–	–	0.2	0.2	–	0.2	0.2	IC50 [6, 19]: 0.2 µM; IC50 [6, 20]: 0.2 µM; Zika viral replication (Zika virus): Zika viral replication inhibition
COC(=O)c1ccc(Sc2ccccc2-c2cn(-c3cc(OC)ccc3OC)nn2)cc1 [Compound 5bx, Methyl 4-((2-(1-(2,5-dimethoxyphenyl)-1H-1,2,3-triazol-4-yl)phenyl)thio)benzoate]	–	–	–	–	> 50	–	–	0.2	0.2	–	0.2	0.2	upregulation of A3G and downregulation of Vif (immunoblots, FIG. 16) ([1]; 293FT cells, 50 μM): same mechanism as of RN-18; also recorded: same mechanism as observed for RN-18 and 1d; IC50 [5, 21]: > 50 µM; IC50 [6, 22]: 0.2 µM; IC50 [6, 19]: 0.2 µM; IC50 [6, 20]: 0.2 µM; Zika viral replication (Zika virus): Zika viral replication inhibition
COc1ccccc1-c1noc(-c2ccccc2Sc2ccc([N+](=O)[O-])cc2)n1 [Compound 1c, 3-(2-Methoxyphenyl)-5-(2-((4-nitrophenyl)thio)phenyl)-1,2,4-oxadiazole]	up-regulation of A3G; also recorded: restoring A3G levels	downregulation of Vif; also recorded: down-regulated Vif expression	> 50	> 50	–	6.8	6.8	–	6.8	138	–	–	–
COc1ccccc1-n1nncc1-c1ccccc1Sc1ccc([N+](=O)[O-])cc1 [Compound 1e, 1-(2-Methoxyphenyl)-5-(2-((4-nitrophenyl)thio)phenyl)-1H-1,2,3-triazole]	up-regulation of A3G; also recorded: restoring A3G levels	downregulation of Vif; also recorded: down-regulated Vif expression	25	25	–	15	15	–	15	139 to 141	–	–	IC50 [5, 23]: 25 µM
COc1ccccc1-c1nnc(-c2ccccc2Sc2ccc([N+](=O)[O-])cc2)o1 [Compound 1b, 2-(2-Methoxyphenyl)-5-(2-((4-nitrophenyl)thio)phenyl)-1,3,4-oxadiazole]	up-regulation of A3G; also recorded: restoring A3G levels	downregulation of Vif; also recorded: down-regulated Vif expression	50	50	–	6.8	6.8	–	6.8	128 to 130	–	–	IC50 [5, 10]: 50 µM; IC50 [5, 23]: 50 µM; IC50 [6, 14]: 6.8 µM
COc1ccc(-n2cc(-c3ccccc3S(=O)(=O)c3ccc(C(=O)O)cc3)nn2)c(OC)c1 [Compound 4gy, 2-Hydroxy-N,N,N-trimethylethanaminium 4-((2-(1-(2,4-dimethoxyphenyl)-1H-1,2,3-triazol-4-yl)phenyl)sulfonyl)benzoate]	–	–	–	–	> 50	–	–	–	0.7	–	0.7	0.7	IC50 [5, 21]: > 50 µM; antiviral activity against HIV-1 (in words) ([6]; HIV-1 replication): potent activities; IC50 [6, 22]: 0.7 µM; water solubility [7]: water-soluble
